The test system of assay [1] is Staphylococcus aureus biofilms. In words: S. Aureus biofilm reduction in 96 well plate: 10 min treatment, crystal violet stain, optical density at 600 nm. To be noted: for Reduction in Enzyme Effectiveness by preservative: 10 mg/mL α-amylase + preservative, FIG. 12A, 12B. The class given is cell-based, Staphylococcus aureus subsp. aureus Rosenbach (ATCC 29213). How it is done: • Step 1. Place a new CuveTip on the Photopette • Step 2. Turn on the Photopette and ensure the bluetooth has connected to the iPad. • Step 3. Open the App and set the measurement to collect at 600 nm (use ecoli setting for brevity). • Step 4. Zero the Photopette in DI water, and clean the tip with a chemwipe. • Step 5. Aseptically transfer 100 ml of the TSB citrate media (TSBC) to a flask. • Step 6. Aseptically transfer the overnight culture of Staphylococcus aureus subsp. aureus Rosenbach (ATCC 29213) in Tryptic Soy Broth to the TSB citrate media (TSBC) using a pipet until the culture is diluted to A600 of 0.02 (~2×10^8 CFU/ml) measured with the Photopette. • Step 7. Remove a sterile 96 well plate from the sterile packaging in the hood and place on the table. • Step 8. Set an 8 channel pipet for […] and attach sterile tips. • Step 9. Plate the desired number of wells with […] of the diluted culture. • Step 10. Cover the well plate and incubate overnight for 18 hrs at 37° C.
Plate S. Aureus in all wells of a 96 tissue culture treated well plate. The well plate should incubate for 18 hrs at 37° C. before being assayed for biofilm formation.
Carefully tilt plate and pipet all liquid from the wells by inserting the pipet tips in the bottom corner of the wells to remove non-adherent cells without disturbing the biofilm grown on the bottom of the well.
Start a timer for 10 minutes when the first row is treated using an 8-channel pipette. Each row should be treated every 30 seconds making sure to gently release the composition in the corner of the well to not disturb the biofilm mechanically.
After 10 min all fluid should be removed row by row every 30 seconds starting with Row 1. The fluid must be removed with gentle pipetting, with the plate at an angle, with the pipette in the corner to remove non-adherent cells without disturbing the biofilm grown on the bottom of the well.
Add 50 μl of 0.1% crystal violet (CV) to stain adherent cells for all wells.
Carefully rinse all wells by submerging the plate in a DI water bath to remove all remaining crystal violet.
Dry the well plate and measure the optical density of the biofilms using a plate reader at 600 nm.
Repeat the steps outlined in 1.2 and 1.3 for scheduled testing days on days 7, 14, 21, 28, and 35. For each day of testing scheduled at days 7, 14, 21, 28, and 35 a well plate of biofilm should be prepared the day before.
The remaining biofilm density was assessed using a cell plate reader at 600 nm called an optical density 600 (OD600) measurement.
Staphylococcus aureus biofilms were grown in 96 well (Corning Falcon) cell culture treated plates using a TSB broth supplemented with yeast extract, glucose, and sodium citrate to induce biofilm formation and incubated for 18 hours.
Non-adherent cells were removed and the biofilms were treated with different solutions to test the ability to break down the Staph. aureus biofilms. Solutions with α-amylase were produced at 10 mg/mL using α-amylase from Aspergillus oryzae (Sigma-Aldrich Catalog #10065) ~30 U/mg.
After 10 minutes of incubation non-adherent cells were removed and the residual biofilms were stained with crystal violet. The density of the remaining biofilm was measured at 600 nm using a Byonoy Absorbance 96 plate reader.
Staphylococcus aureus biofilms were grown in 96 well (Crnming Falcon) cell culture treated plates using a TSB broth supplemented with yeast extract, glucose, and sodium citrate to induce biofilm formation and incubated for 18 hours. […]

A further assay deals with biofilm on the eyelid. In words: Treatment of a human subject (Example 13): eyelid photographs and reported symptoms. The class given is in vivo. As to conditions: daily Avenova. The source says:
All images are from the same subject at the Watson Dry Eye Center in Raleigh NC at the specified times. The images were reviewed retrospectively to determine if the visual signs of biofilm on the eyelid were removed by a composition of α-amylase from Aspergillus oryzae and 0.01% hypochlorous acid. It should be noted that from May 23, 2018-Nov. 20, 2020 the patient cleaned their eyes with just 0.01% hypochlorous acid in saline two times a day. After this, the patient used the novel composition of α-amylase from Aspergillus oryzae and 0.01% hypochlorous acid. The first composition was made from powdered α-amylase from Aspergillus oryzae and liquid 0.01% hypochlorous acid in saline right before application to the eyelid with a cotton swab. […] Dosage information is written on the timeline below.
FIG. 1A and FIG. 1B are photographs depicting two different areas of an eye of the subject afflicted with blocked meibomian glands, shiny biofilm at the base of eyelashes, shine biofilm on eyelashes, and lash growth misdirection taken on May 23, 2018 (time 0). After the photos were taken, the subject was treated with Blephex and Intense Pulse Light Therapy for biofilm removal treating inflammation.
Subject received a subsequent treatment session on Dec. 4, 2018. FIG. 2A and FIG. 2B are photographs depicting the two different areas of the eye of the subject on Dec. […]

Consider `OCl` [0.01% hypochlorous acid, hypochlorous acid], for which the “inhibition of biofilm removal by the enzyme” value in assay [1] (0.01% hypochlorous acid with 10 mg/ml α-amylase and cofactors, FIG. 13) is reported as “did not inhibit biofilm removal by the enzyme”. Also, the “biofilm reduction by the additive on its own” value in assay [1] (without α-amylase, 10 min) is recorded as “slightly reduce the biofilm”. Besides, the “biofilm at the eyelashes” value in the assay on biofilm on the eyelid (time 2 (June 18 2019), FIG. 3A) was “the biofilm continues to grow at the base of the eyelashes”. For the same compound, the “biofilm at the eyelashes and eyelid” value in the assay on biofilm on the eyelid (time 3 (October 15 2019), FIGS. 4A and 4B) is “the shine biofilm remains at the eyelashes and inside the eyelid”.
Take `OC[C@H]1O[C@H](O[C@H]2O[C@H](CO)[C@@H](O)[C@H](O)[C@H]2O)[C@H](O)[C@@H](O)[C@@H]1O` [Trehalose]: in assay [1] (3%, 6.8%, and 8% Trehalose solutions, α=0.05, FIG. 17), the “differences in the enzyme activity (break down of biofilms) between concentrations” value is listed as “no significant differences”.
On to “benzalkonium chloride [BAK (benzalkonium chloride) 0.01%]”, for which the “Reduction in Enzyme Effectiveness by preservative” value in assay [1] (10 min) is “No Reduction in Enzyme Effectiveness”.
Consider “sodium perborate [GenAqua/Dequest (sodium perborate)]”, for which, in assay [1] (10 min), the “Reduction in Enzyme Effectiveness by preservative” value is recorded as “No Reduction in Enzyme Effectiveness”.
